Data reported in US12453728B1, “Compositions comprising inhibitors of microsomal triglyceride transfer protein and Apo-B secretion” (Redux Therapeutics, LLC, priority 2024, dated 2025).

Legend:
[1] = Effect of Compound 3 on steady-state pharmacokinetics of olanzapine; assay type: in vivo, human; conditions: 200 mg Compound 3 BID with 10 mg olanzapine; days 8 and 15
Description: Postprandial triglycerides and lipid profiles were assessed on study days 1, 8, and 15, olanzapine pharmacokinetics was assessed on study days 8 and 15, and safety and tolerability were assessed throughout. On each of these study days, subjects consumed a standardized breakfast (˜900 kcal; 55% of kcal from fat) in 15 minutes. Blood samples were drawn prior to meal consumption and 1, 2, 3, 4, 6 and 8 hours after initiation of meal.

[2] = Postprandial triglycerides after a standardized breakfast in subjects treated with olanzapine; conditions: normal healthy volunteers; 10 mg olanzapine alone, or 10 mg olanzapine + 200 mg Compound 3 BID (days 8-15)
[3] = Body weight change during olanzapine treatment
[4] = Lipid profile and glucose; conditions: for glucose: olanzapine study, healthy volunteers
[5] = in vivo

impact on the pharmacokinetic profile of olanzapine [1]	SMILES	postprandial triglycerides [2]	blunting of body weight gain from olanzapine ([3]; second week of the study, 10 mg olanzapine + 200 mg Compound 3 BID)	LDL-C ([4]; Day 9-15, olanzapine alone vs olanzapine + Compound 3)	glucose [4]	SAEs, fatal events, discontinuations due to adverse events [5]	weight gain during the first week of treatment ([3]; normal healthy volunteers, 10 mg olanzapine alone, first week)
did not significantly impact	COc1cccc(C(=O)Nc2ccc3c(c2)CCN(C(=O)Oc2ccccc2)C3)c1-c1ccc(C(F)(F)F)cc1 [Compound 3]	greatly reduced postprandial triglycerides	significant blunting in body weight gain	blunted	No changes in glucose were observed	–	–
–	Cc1cc2c(s1)Nc1ccccc1N=C2N1CCN(C)CC1 [olanzapine, reference compound]	–	–	–	No changes in glucose were observed	No SAEs, fatal events, or discontinuations due to adverse events	significant weight gain
